From US8691816B2, “Pyrrole inhibitors of S-nitrosoglutathione reductase as therapeutic agents” (N30 Pharmaceuticals, Inc., priority 2008, dated 2014)

Molecular target: T1, GSNOR (GSNO Reductase) (Homo sapiens, UniProt P11766)
T1 construct: made in house; host or cells: E. coli (arabinose induction)
Assay: GSNOR assay (in vitro inhibition of GSNOR activity, NADH absorbance at 340 nm)
Format: biochemical
Settings: 0.240 mM GSNO, 0.300 mM NADH, 0.5 μg/mL GSNO Reductase, pH 7.4, 25° C.
Method: Various compounds were tested in vitro for their ability to inhibit GSNOR activity. Representative compounds and their corresponding GSNOR activity are described in a paragraph before Table 1 above. GSNOR expression and purification is described in Biochemistry 2000, 39, 10720-10729.
GSNOR fermentation: Pre-cultures were grown from stabs of a GSNOR glycerol stock in 2XYT media containing 100 ug/ml ampicillin after an overnight incubation at 37° C. Cells were then added to fresh 2XYT (4 L) containing ampicillin and grown to an OD (A600) of 0.6-0.9 at 37° C. before induction. GSNOR expression was induced with 0.1% arabinose in an overnight incubation at 20° C.
GSNOR Purification: E. coli cell paste was lysed by nitrogen cavitation and the clarified lysate purified by Ni affinity chromatography on an AKTA FPLC (Amersham Pharmacia). The column was eluted in 20 mM Tris pH 8.0/250 mM NaCl with a 0-500 mM imidazole gradient. […] GSNOR was recovered in the flowthrough fraction and for crystallography is further purified by Q-Sepharose and Heparin flowthrough chromatography in 20 mM Tris pH 8.0, 1 mM DTT, 10 uM ZnSO4.
GSNOR assay: GSNO and Enzyme/NADH Solutions are made up fresh each day. The Solutions are filtered and allowed to warm to room temperature. GSNO Solution: 100 mM NaPO4 (pH 7.4), 0.480 mM GSNO. 396 μL of GSNO Solution is added to a cuvette followed by 8 μL of test compound in DMSO (or DMSO only for full reaction control) and mixed with the pipette tip. Compounds to be tested are made up at a stock concentration of 10 mM in 100% DMSO. 2 fold serial dilutions are done in 100% DMSO. 8 μL of each dilution are added to an assay so that the final concentration of DMSO in the assay is 1%. The concentrations of compounds tested range from 100 to 0.003 μM. Enzyme/NADH Solution: 100 mM NaPO4 (pH 7.4), 0.600 mM NADH, 1.0 μg/mL GSNO Reductase. 396 μL of the Enzyme/NADH Solution is added to the cuvette to start the reaction. The cuvette is placed in the Cary 3E UV/Visible Spectrophotometer and the change in 340 nm absorbance/min at 25° C. is recorded for 3 minutes. The assays are done in triplicate for each compound concentration. IC50's for each compound are calculated using the standard curve analysis in the Enzyme Kinetics Module of SigmaPlot.
Final assay conditions: 100 mM NaPO4, pH 7.4, 0.240 mM GSNO, 0.300 mM NADH, 0.5 μg/mL GSNO Reductase and 1% DMSO. Final volume: 800 μL/cuvette.

T1 sequence (P11766 whole entry): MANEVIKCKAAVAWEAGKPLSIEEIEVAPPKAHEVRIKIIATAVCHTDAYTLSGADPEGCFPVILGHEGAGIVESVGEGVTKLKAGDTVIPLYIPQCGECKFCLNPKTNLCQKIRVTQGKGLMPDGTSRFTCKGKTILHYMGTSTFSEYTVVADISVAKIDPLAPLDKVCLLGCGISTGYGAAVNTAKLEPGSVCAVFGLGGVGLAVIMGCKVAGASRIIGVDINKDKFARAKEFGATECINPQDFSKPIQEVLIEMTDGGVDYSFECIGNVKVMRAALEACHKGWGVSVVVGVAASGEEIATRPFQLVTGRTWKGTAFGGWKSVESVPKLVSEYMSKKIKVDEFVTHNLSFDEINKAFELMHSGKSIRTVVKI

Row | Structure (SMILES) | IC50 [nM]
1 | CCc1nccn1-c1ccc(-c2ccc(CCC(=O)O)n2-c2ccc(C(N)=O)cc2C)cc1 [Compound 69, 3-(1-(4-carbamoyl-2-methylphenyl)-5-(4-(2-ethyl-1H-imidazol-1-yl)phenyl)-1H-pyrrol-2-yl)propanoic acid] | < 1000
2 | COc1ccc(-c2ccc(CCC(=O)O)n2-c2ccc(O)cc2Cl)cc1 [Compound 80, 3-(1-(2-chloro-4-hydroxyphenyl)-5-(4-methoxy-phenyl)-1H-pyrrol-2-yl)propanoic acid] | < 1000
3 | COc1ccc(-c2ccc(CCC(=O)O)n2-c2ccc(C(N)=O)cc2C)c(C)c1 [Compound 110, 3-(1-(4-carbamoyl-2-methylphenyl)-5-(4-methoxy-2-methylphenyl)-1H-pyrrol-2-yl)propanoic acid] | < 1000
4 | COc1ccc(-c2ccc(CCC(=O)O)n2-c2ccc(C(N)=O)cc2C)c(Cl)c1 [Compound 118, 3-(1-(4-carbamoyl-2-methylphenyl)-5-(2-chloro-4-methoxy-phenyl)-1H-pyrrol-2-yl)propanoic acid] | < 1000
5 | Cc1cc(C(N)=O)ccc1-n1c(CCC(=O)O)ccc1-c1cc(-n2ccnc2)cs1 [Compound 120, 3-(5-(4-(1H-imidazol-1-yl)thiophen-2-yl)-1-(4-carbamoyl-2-methylphenyl)-1H-pyrrol-2-yl)propanoic acid] | < 1000
6 | Cc1cc(C(N)=O)ccc1-n1c(CCC(=O)O)ccc1-c1cc(-n2ccnc2C)cs1 [Compound 144, 3-(1-(4-carbamoyl-2-methylphenyl)-5-(4-(2-methyl-1H-imidazol-1-yl)thiophen-2-yl)-1H-pyrrol-2-yl)propanoic acid] | < 1000
7 | COc1cc(-n2ccnc2C)ccc1-c1ccc(CCC(=O)O)n1-c1ccc(C(N)=O)cc1C [Compound 146, 3-(1-(4-carbamoyl-2-methylphenyl)-5-(2-methoxy-4-(2-methyl-1H-imidazol-1-yl)phenyl)-1H-pyrrol-2-yl)propanoic acid] | < 1000
8 | Cc1cc(C(N)=O)ccc1-n1c(CCC(=O)O)ccc1-c1ccc(Cl)cc1C(N)=O [Compound 152, 3-(1-(4-carbamoyl-2-methylphenyl)-5-(2-carbamoyl-4-chloro-phenyl)-1H-pyrrol-2-yl)propanoic acid] | < 1000
9 | Cc1cc(S(N)(=O)=O)ccc1-n1c(CCC(=O)O)ccc1-c1ccc(-n2ccnc2C)s1 [Compound 194] | < 1000
10 | COc1ccc(-c2ccc(CCC(=O)O)n2-c2ccc3ccncc3c2)cc1 [Compound 223, 3-(1-(isoquinolin-7-yl)-5-(4-methoxyphenyl)-1H-pyrrol-2-yl)propanoic acid] | < 5000
11 | COc1ccc(-c2ccc(CCC(=O)O)n2-c2ccc(F)c(C#N)c2)cc1 [Compound 226, 3-(1-(3-cyano-4-fluorophenyl)-5-(4-methoxyphenyl)-1H-pyrrol-2-yl)propanoic acid] | < 5000
12 | COc1ccc(-c2ccc(CCC(=O)O)n2-c2ccc3c(N)noc3c2)cc1 [Compound 231, 3-(1-(3-aminobenzo[d]isoxazol-6-yl)-5-(4-methoxyphenyl)-1H-pyrrol-2-yl)propanoic acid] | < 1000
13 | O=C(O)CCc1ccc(-c2ccccc2)n1-c1ccc(O)c(C(=O)O)c1 [Compound 232, 5-(2-(2-carboxyethyl)-5-phenyl-1H-pyrrol-1-yl)-2-hydroxybenzoic acid] | < 5000
14 | Cc1nccn1-c1ccc(-c2ccc(CCC(=O)O)n2-c2ccc3oc(=O)[nH]c3c2)cc1 [Compound 235, 3-(5-(4-(2-methyl-1H-imidazol-1-yl)phenyl)-1-(2-oxo-2,3-dihydrobenzo[d]oxazol-5-yl)-1H-pyrrol-2-yl)propanoic acid] | < 1000
15 | Cc1nccn1-c1ccc(-c2ccc(CCC(=O)O)n2-c2ccc3[nH]c(=O)oc3c2)cc1 [Compound 236, 3-(5-(4-(2-methyl-1H-imidazol-1-yl)phenyl)-1-(2-oxo-2,3-dihydrobenzo[d]oxazol-6-yl)-1H-pyrrol-2-yl)propanoic acid] | < 5000
16 | Cc1nccn1-c1ccc(-c2ccc(CCC(=O)O)n2-c2ccc(O)cc2)cc1 [Compound 249, 3-(1-(4-hydroxyphenyl)-5-(4-(2-methyl-1H-imidazol-1-yl)phenyl)-1H-pyrrol-2-yl)propanoic acid] | < 1000
17 | COc1cc(Cl)ccc1-c1ccc(CCC(=O)O)n1-c1ccc(O)cc1 [Compound 262, 3-(5-(4-chloro-2-methoxyphenyl)-1-(4-hydroxyphenyl)-1H-pyrrol-2-yl)propanoic acid] | < 1000

The remaining lines, values ahead:

Row | IC50 [nM] | Structure (SMILES)
18 | < 5000 | Cc1cc(NS(C)(=O)=O)ccc1-n1c(CCC(=O)O)ccc1-c1cc(Br)cs1 [Compound 183, 3-(5-(4-bromothiophen-2-yl)-1-(2-methyl-4-(methyl-sulfonamido)-phenyl)-1H-pyrrol-2-yl)propanoic acid]
19 | < 1000 | COc1ccc(-c2ccc(CCC(=O)O)n2-c2ccc3ncccc3c2)cc1 [Compound 216, 3-(5-(4-methoxyphenyl)-1-(quinolin-6-yl)-1H-pyrrol-2-yl)propanoic acid]
20 | < 1000 | Cc1cc2nc[nH]c2cc1-n1c(CCC(=O)O)ccc1-c1ccc(-n2ccnc2)cc1 [Compound 219, 3-(5-(4-(1H-imidazol-1-yl)phenyl)-1-(5-methyl-1H-benzo[d]imidazol-6-yl)-1H-pyrrol-2-yl)propanoic acid]
21 | < 1000 | COc1ccc(-c2ccc(CCC(=O)O)n2-c2ccc(C(N)=O)c(Cl)c2)cc1 [Compound 221, 3-(1-(4-carbamoyl-3-chlorophenyl)-5-(4-methoxyphenyl)-1H-pyrrol-2-yl)propanoic acid]
22 | < 5000 | COc1ccc(-c2ccc(CCC(=O)O)n2-c2ccc(O)c(F)c2)cc1 [Compound 229, 3-(1-(3-fluoro-4-hydroxyphenyl)-5-(4-methoxyphenyl)-1H-pyrrol-2-yl)propanoic acid]
23 | < 5000 | COc1ccc(-c2ccc(CCC(=O)O)n2-c2ccc(C(N)=O)s2)cc1 [Compound 237, 3-(1-(5-carbamoylthiophen-2-yl)-5-(4-methoxyphenyl)-1H-pyrrol-2-yl)propanoic acid]
24 | < 5000 | COc1ccc(-c2ccc(CCC(=O)O)n2-c2ncc(C(N)=O)s2)cc1 [Compound 238, 3-(1-(5-carbamoylthiazol-2-yl)-5-(4-methoxyphenyl)-1H-pyrrol-2-yl)propanoic acid]
25 | < 1000 | Cc1nccn1-c1csc(-c2ccc(CCC(=O)O)n2-c2ccc(O)cc2)c1 [Compound 255, 3-(1-(4-hydroxyphenyl)-5-(4-(2-methyl-1H-imidazol-1-yl)thiophen-2-yl)-1H-pyrrol-2-yl)propanoic acid]
26 | < 1000 | COc1cc(Cl)ccc1-c1ccc(CCC(=O)O)n1-c1ccc(C(N)=O)cc1 [Compound 264, 3-(1-(4-carbamoylphenyl)-5-(4-chloro-2-methoxyphenyl)-1H-pyrrol-2-yl)propanoic acid]
27 | < 1000 | Cc1nccn1-c1csc(-c2ccc(CCC(=O)O)n2-c2ccc(NS(C)(=O)=O)cc2)c1 [Compound 267, 3-(5-(4-(2-methyl-1H-imidazol-1-yl)thiophen-2-yl)-1-(4-(methylsulfonamido)-phenyl)-1H-pyrrol-2-yl)propanoic acid]
28 | < 1000 | Cc1nccn1-c1ccc(-c2ccc(CCC(=O)O)n2-c2ccc(O)cc2)s1 [Compound 273, 3-(1-(4-hydroxyphenyl)-5-(5-(2-methyl-1H-imidazol-1-yl)thiophen-2-yl)-1H-pyrrol-2-yl)propanoic acid]
